According to paper PMC4307180, “Overcoming myelosuppression due to synthetic lethal toxicity for FLT3-targeted acute myeloid leukemia therapy” (eLife, 2014):

How the values were obtained:
purified FLT3 WT = biological target: T1, purified FLT3 WT (Homo sapiens, UniProt P36888); experiment: Radiolabeled purified kinase assay (Figure 1B)
T1 sequence (P36888 27-993): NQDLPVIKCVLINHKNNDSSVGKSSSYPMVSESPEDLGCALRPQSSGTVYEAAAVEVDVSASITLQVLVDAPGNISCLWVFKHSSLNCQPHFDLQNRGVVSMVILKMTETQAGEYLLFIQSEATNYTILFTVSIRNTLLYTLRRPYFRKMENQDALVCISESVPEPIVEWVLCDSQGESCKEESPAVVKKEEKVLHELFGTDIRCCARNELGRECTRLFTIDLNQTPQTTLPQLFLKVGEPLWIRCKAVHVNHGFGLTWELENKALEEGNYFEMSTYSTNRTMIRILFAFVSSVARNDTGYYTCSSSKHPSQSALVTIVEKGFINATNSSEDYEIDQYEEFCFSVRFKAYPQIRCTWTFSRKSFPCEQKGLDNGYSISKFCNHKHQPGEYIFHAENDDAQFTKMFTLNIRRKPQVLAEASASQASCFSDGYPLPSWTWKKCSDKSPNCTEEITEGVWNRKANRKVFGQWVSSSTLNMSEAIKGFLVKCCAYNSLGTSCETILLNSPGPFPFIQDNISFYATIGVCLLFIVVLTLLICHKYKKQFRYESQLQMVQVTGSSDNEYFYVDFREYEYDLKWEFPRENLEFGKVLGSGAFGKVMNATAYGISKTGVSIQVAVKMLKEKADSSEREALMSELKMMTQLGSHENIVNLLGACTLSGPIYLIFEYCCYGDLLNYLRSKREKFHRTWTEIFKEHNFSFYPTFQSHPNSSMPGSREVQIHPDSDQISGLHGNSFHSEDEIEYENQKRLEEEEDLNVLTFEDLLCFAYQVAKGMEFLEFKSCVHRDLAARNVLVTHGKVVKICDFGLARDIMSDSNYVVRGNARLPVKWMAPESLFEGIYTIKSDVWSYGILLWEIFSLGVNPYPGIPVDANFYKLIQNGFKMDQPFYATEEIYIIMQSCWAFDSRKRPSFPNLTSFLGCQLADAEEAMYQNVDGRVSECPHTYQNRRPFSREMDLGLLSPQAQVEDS

HMC1.1 cells (KIT V560G) = conditions: proliferation, Figure 2A and reference values; ref de Jong and Zon, 2005; Guo et al., 2007; Kampa-Shittenhelm et al., 2013; cited from earlier work
KIT = KIT (Homo sapiens, UniProt P10721); experiment: Reaction Biology Corp kinase assay at Km-ATP (Figure 1C), KIT
FLT3 = biological target: T2, FLT3 (Homo sapiens, UniProt P36888); experiment: Reaction Biology Corp kinase assay at Km-ATP (Figure 1C), FLT3
T2 sequence (P36888 27-993): T1 sequence (P36888 27-993)

PDGFRβ = PDGFRβ (Homo sapiens, UniProt P09619); experiment: Reaction Biology Corp kinase assay at Km-ATP (Figure 1C), PDGFRβ
PDGFRα = PDGFRα (Homo sapiens, UniProt P16234); experiment: Reaction Biology Corp kinase assay at Km-ATP (Figure 1C), PDGFRα
CSF1R = CSF1R (Homo sapiens, UniProt P07333); experiment: Reaction Biology Corp kinase assay at Km-ATP (Figure 1C), CSF1R
Chain of CSF1R (P07333 20-972): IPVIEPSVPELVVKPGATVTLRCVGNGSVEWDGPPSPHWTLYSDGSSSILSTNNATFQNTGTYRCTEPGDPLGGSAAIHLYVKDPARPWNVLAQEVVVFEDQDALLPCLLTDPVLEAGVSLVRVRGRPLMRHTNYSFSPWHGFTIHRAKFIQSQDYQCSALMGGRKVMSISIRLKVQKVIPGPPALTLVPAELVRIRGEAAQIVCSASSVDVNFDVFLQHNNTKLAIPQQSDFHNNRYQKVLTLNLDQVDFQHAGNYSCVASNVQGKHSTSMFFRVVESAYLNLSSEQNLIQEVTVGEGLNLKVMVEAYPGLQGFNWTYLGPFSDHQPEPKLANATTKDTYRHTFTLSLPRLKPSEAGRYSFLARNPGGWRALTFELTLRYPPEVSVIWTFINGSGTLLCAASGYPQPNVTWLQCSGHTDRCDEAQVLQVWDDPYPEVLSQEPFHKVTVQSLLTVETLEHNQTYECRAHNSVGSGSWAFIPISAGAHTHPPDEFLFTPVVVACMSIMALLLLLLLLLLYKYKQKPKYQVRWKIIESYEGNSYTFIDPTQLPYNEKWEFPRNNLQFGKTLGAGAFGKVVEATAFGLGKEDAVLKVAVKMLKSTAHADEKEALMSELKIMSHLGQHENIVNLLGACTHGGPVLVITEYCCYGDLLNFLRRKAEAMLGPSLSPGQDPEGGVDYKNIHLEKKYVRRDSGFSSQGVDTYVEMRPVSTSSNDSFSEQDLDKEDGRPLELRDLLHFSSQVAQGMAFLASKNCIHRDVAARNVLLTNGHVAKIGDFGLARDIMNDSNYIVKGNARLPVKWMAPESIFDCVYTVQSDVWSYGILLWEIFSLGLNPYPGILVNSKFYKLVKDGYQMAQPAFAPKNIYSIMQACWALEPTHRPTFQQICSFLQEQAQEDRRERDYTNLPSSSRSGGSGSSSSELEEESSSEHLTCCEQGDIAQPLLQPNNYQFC

Chain of KIT (P10721 26-976): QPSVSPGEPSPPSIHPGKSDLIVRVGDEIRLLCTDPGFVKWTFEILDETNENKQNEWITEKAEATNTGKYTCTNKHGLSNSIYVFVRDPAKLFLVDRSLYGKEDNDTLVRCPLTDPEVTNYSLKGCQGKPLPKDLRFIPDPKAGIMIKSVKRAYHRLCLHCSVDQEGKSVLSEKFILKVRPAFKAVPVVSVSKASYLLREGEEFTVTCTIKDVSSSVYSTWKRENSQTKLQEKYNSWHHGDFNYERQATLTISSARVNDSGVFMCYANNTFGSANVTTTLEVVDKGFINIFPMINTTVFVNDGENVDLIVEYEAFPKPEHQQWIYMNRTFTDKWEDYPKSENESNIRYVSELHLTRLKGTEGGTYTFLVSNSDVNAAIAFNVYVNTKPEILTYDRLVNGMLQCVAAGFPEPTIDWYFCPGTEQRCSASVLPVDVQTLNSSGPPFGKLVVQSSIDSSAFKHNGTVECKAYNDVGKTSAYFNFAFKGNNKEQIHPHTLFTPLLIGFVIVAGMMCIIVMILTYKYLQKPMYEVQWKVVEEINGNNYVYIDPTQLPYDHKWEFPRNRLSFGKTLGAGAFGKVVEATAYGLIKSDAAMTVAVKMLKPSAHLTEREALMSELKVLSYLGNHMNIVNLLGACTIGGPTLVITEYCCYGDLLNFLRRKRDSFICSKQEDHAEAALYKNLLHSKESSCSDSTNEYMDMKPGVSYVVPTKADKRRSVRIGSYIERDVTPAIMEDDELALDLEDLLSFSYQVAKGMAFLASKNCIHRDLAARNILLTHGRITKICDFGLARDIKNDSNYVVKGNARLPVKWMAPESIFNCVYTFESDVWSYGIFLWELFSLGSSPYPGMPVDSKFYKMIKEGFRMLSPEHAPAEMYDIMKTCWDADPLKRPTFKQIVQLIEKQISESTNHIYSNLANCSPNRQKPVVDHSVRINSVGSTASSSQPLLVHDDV
Chain of PDGFRα (P16234 24-1089): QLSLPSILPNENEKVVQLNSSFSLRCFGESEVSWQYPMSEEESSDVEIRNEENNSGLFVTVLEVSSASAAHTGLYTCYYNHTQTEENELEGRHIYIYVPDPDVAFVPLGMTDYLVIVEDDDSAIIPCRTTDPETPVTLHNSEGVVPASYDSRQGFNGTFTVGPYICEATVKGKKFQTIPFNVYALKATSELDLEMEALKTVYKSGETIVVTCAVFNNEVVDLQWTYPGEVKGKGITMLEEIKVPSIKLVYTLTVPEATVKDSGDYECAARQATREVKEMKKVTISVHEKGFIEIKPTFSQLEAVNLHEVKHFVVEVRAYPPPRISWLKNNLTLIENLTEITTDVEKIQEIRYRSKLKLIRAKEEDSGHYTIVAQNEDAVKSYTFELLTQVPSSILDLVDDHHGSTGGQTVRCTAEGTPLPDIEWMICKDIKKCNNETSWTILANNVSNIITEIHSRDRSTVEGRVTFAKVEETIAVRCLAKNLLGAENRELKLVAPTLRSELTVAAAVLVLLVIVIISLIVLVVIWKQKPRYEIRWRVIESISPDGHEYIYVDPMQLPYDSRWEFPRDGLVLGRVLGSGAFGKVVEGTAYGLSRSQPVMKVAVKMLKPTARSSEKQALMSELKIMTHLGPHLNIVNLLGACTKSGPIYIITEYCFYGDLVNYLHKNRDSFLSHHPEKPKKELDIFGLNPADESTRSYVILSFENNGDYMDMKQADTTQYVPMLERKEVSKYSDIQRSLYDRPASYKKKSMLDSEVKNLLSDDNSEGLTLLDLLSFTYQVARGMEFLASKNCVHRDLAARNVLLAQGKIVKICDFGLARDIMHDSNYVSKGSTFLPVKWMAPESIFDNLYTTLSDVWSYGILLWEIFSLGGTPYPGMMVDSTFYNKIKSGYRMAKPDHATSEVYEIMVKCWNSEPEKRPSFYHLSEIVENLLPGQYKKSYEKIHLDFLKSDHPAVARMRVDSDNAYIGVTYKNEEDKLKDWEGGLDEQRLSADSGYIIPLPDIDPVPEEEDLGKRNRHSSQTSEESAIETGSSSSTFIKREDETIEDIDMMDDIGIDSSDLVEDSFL
Chain of PDGFRβ (P09619 33-1106): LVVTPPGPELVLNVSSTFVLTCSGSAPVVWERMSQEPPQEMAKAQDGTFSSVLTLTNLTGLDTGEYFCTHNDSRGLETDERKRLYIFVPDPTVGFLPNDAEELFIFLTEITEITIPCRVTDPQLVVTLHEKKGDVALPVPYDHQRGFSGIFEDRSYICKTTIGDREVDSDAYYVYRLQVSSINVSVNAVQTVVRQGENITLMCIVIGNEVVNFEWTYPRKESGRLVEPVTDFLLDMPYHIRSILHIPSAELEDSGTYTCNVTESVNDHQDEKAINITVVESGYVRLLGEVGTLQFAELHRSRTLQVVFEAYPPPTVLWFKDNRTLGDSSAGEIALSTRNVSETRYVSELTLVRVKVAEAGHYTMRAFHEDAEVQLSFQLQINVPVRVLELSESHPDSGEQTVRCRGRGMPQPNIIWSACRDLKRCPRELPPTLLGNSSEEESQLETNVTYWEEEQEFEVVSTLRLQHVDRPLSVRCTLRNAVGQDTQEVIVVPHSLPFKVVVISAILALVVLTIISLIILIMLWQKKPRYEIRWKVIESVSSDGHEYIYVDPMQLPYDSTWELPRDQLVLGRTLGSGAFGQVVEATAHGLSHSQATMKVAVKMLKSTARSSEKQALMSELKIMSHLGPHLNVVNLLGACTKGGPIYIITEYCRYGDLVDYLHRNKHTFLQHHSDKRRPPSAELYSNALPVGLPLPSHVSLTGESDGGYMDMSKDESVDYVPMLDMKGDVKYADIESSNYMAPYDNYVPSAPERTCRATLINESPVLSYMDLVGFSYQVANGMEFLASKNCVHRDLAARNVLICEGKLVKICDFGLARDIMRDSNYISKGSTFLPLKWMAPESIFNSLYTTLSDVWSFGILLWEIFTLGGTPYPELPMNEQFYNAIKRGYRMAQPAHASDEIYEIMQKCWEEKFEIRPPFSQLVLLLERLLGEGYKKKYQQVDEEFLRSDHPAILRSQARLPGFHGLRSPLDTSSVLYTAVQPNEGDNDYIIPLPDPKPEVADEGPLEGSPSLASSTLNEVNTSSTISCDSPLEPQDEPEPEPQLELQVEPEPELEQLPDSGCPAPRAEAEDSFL

Row | IC50 (purified FLT3 WT) | SMILES | other results
1 | > 10 µM | CCC[C@@H]1NC(=O)c2c1c1c3ccccc3[nH]c1c1[nH]c3ccccc3c21 [Star 3] | –
2 | > 10 µM | C#CC[C@@H]1NC(=O)c2c1c1c3ccccc3[nH]c1c1[nH]c3ccccc3c21 [Star 9] | –
3 | > 10 µM | CCCC[C@@H]1NC(=O)c2c1c1c3ccccc3[nH]c1c1[nH]c3ccccc3c21 [Star 4] | –
4 | > 10 µM | CC(C)(C)[C@@H]1NC(=O)c2c1c1c3ccccc3[nH]c1c1[nH]c3ccccc3c21 [Star 7] | –
5 | 0.015 ± 0.007 µM | C[C@@H]1NC(=O)c2c1c1c3ccccc3[nH]c1c1c2c2ccccc2n1CCCN [Star 27-iso] | –
6 | 2 µM | CC[C@@H]1NC(=O)c2c1c1c3ccccc3[nH]c1c1[nH]c3ccccc3c21 [Star 8] | –
7 | – | CNC(=O)c1cc(Oc2ccc(NC(=O)Nc3ccc(Cl)c(C(F)(F)F)c3)cc2)ccn1 [Sorafenib] | inhibition of FLT3- versus KIT-driven cell lines (HMC1.1 cells (KIT V560G)): equipotent inhibition of FLT3 and KIT-driven cell lines
8 | 2 µM | CC(C)[C@@H]1NC(=O)c2c1c1c3ccccc3[nH]c1c1[nH]c3ccccc3c21 [Star 6] | –
9 | > 10 µM | CC(C)C[C@@H]1NC(=O)c2c1c1c3ccccc3[nH]c1c1[nH]c3ccccc3c21 [Star 1] | –
10 | – | Cc1ccc(C(=O)Nc2ccc(CN3CCN(C)CC3)c(C(F)(F)F)c2)cc1C#Cc1cnc2cccnn12 [Ponatinib] | inhibition of FLT3- versus KIT-driven cell lines (HMC1.1 cells (KIT V560G)): equipotent inhibition of FLT3 and KIT-driven cell lines
11 | 0.193 ± 0.028 µM | C[C@@H]1NC(=O)c2c1c1c3ccccc3[nH]c1c1[nH]c3ccccc3c21 [Star 22] | –
12 | 0.01 ± 0.004 µM | C[C@@H]1NC(=O)c2c1c1c3ccccc3n(CCCCN)c1c1[nH]c3ccccc3c21 [Star 23] | IC50 (KIT): 6.55 µM; KIT/FLT3 IC50 ratio (KIT; ratio of Figure 1C IC50s): 728; IC50 (FLT3): 0.009 ± 0.001 µM; IC50 (PDGFRβ): 2.8 µM; IC50 (PDGFRα): 2 µM; IC50 (CSF1R): > 10 µM
